# Test results published in the Kinase Knowledgebase extract (Sharma et al. 2016).
# Assays:
# [1] = target: EGFR (Human), P00533 [T790M/L858R]
# EGFR (human) [2] = target: EGFR (human) (UniProt P00533)
# EGFR (human) [3] = target: EGFR (human) (UniProt P00533); settings: geo
# EGFR (human) [4] = target: EGFR (human) (UniProt P00533); settings: pc-9
# EGFR (human) [5] = target: EGFR (human) (UniProt P00533); settings: geo; remark: listed apart in the source
# EGFR (human) [6] = target: EGFR (human) (UniProt P00533); remark: listed apart in the source
# ROCK2 (human) [7] = target: ROCK2 (human) (UniProt O75116); experiment: Inhibition of ROCK2 Kinase Activity
# ROCK2 (human) [8] = target: ROCK2 (human) (UniProt O75116); experiment: Inhibition of ROCK2 Kinase Activity (MLSCN Assay)
# CDK2 [9] = target: CDK2 (UniProt P24941); experiment: Enzyme Assay
# CDK2 [10] = target: CDK2 (UniProt P24941); experiment: Enzyme Assay; remark: listed apart in the source
# MAPK14 (human) [11] = target: MAPK14 (human) (UniProt Q16539); experiment: p38-mediated IL-1 Inhibition (LPS-Stimulated PBMCs); settings: pbmc
# MAPK14 (human), sequence (Q16539 whole entry, looked up): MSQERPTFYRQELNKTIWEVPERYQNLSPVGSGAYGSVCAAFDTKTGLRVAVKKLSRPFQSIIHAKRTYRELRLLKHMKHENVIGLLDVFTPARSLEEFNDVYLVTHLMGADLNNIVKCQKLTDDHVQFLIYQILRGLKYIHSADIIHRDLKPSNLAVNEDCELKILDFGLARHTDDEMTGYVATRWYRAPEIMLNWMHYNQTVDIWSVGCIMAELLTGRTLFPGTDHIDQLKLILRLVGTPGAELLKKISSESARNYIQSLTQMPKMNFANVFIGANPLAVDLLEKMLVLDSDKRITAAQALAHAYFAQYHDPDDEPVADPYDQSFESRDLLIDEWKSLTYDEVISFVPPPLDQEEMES
# MAPK14 (human) [12] = target: MAPK14 (human) (UniProt Q16539); experiment: p38-mediated TNF-Inhibition (LPS-Stimulated PBMCs); settings: pbmc
# [13] = target: EGFR (Human), P00533 [T790M/L858R]; settings: h1975
# MAPK14 [14] = target: MAPK14 (UniProt Q16539); experiment: p38-alpha2 Inhibition (E. coli); settings: concentration not given here
# MAPK14, sequence (Q16539 whole entry, looked up): as above
# EGFR [15] = target: EGFR (UniProt P00533)
# EGFR, sequence (P00533 whole entry, looked up): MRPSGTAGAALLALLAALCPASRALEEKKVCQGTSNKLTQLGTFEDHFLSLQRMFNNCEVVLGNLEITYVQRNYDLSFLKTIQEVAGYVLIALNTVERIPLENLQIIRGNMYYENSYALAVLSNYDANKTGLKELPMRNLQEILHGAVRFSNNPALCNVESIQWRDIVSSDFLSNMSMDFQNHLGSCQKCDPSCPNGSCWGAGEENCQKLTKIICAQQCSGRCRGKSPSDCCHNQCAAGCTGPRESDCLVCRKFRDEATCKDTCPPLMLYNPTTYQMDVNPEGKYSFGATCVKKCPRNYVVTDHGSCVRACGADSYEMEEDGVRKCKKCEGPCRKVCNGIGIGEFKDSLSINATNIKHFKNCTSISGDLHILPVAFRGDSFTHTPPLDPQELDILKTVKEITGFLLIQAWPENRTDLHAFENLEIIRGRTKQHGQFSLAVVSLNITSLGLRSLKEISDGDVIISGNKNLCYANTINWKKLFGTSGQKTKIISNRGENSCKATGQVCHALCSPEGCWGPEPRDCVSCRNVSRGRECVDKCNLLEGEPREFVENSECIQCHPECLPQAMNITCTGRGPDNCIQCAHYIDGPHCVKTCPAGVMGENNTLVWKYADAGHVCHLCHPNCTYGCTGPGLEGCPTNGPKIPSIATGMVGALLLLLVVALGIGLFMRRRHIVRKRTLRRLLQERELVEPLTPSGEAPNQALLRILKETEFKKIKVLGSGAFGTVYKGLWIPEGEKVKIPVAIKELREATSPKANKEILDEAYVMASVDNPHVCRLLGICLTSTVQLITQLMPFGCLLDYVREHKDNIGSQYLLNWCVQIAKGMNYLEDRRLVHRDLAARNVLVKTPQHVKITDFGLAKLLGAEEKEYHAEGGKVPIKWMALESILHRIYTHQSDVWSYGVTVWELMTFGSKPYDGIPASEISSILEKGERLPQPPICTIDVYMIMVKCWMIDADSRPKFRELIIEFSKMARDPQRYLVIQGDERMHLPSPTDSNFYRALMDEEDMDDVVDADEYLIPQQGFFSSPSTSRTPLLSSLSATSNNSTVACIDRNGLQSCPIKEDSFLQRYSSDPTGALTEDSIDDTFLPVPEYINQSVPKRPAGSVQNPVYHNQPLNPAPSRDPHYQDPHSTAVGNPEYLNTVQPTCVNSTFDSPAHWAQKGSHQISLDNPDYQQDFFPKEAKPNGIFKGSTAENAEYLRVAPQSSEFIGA
# PIK3CG;PIK3CA (human) = PIK3CG;PIK3CA (human) (UniProt P48736); experiment: Inhibition of PIK3CG/PIK3CA Kinase Activity
# PIK3CA (human) [16] = target: PIK3CA (human) (UniProt P42336); experiment: Cellular Inhibition of PIK3CA Kinase in MDA-MB-453 Cells
# PIK3CA (human), sequence (P42336 whole entry, looked up): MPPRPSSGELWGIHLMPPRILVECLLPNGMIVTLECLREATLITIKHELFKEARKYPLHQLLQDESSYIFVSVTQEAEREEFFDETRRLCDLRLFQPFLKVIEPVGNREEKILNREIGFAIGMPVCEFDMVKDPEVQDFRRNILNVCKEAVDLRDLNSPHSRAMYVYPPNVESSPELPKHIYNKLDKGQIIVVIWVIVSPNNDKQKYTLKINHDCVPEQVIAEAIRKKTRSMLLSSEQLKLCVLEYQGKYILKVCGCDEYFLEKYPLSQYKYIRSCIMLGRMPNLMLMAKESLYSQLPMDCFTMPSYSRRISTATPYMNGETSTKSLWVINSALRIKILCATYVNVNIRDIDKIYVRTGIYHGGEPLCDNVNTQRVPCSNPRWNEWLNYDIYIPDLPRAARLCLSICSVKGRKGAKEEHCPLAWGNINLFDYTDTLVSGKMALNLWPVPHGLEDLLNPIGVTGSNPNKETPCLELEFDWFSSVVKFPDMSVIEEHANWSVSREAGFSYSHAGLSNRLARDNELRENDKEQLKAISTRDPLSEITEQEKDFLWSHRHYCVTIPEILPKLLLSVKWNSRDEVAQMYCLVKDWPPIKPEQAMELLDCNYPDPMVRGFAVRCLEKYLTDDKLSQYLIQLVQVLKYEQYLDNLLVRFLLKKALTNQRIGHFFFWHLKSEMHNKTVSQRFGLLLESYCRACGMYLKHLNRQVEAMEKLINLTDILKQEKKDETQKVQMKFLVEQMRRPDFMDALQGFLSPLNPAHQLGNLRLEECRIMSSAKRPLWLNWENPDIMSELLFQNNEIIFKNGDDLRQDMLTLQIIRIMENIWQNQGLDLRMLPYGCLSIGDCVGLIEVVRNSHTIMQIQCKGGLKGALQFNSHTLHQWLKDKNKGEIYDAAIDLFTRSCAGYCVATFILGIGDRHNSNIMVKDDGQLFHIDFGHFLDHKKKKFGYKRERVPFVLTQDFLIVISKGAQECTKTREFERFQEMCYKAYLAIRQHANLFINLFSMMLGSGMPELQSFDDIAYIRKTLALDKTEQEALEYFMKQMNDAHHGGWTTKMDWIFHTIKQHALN
# MAPK14 (OF1 mice) = experiment: P38-mediated TNF-alpha Inhibition (OF1 Mice)
# MAPK14 (human) [17] = target: MAPK14 (human) (UniProt Q16539); experiment: Enzyme Assay
# [18] = target: EGFR (human), P00533 [L861Q]
# [19] = target: EGFR (human), P00533 [L858R]
# [20] = target: EGFR (human), P00533 [G719C]; settings: a375
# [21] = target: EGFR (human), P00533 [E746-A750del]; settings: a375
# EGFR (human) [22] = target: EGFR (human) (UniProt P00533); remark: listed apart in the source
# EGFR [23] = target: EGFR (UniProt P00533); remark: listed apart in the source
# MAPK14 (human) [24] = target: MAPK14 (human) (UniProt Q16539); experiment: p38 --- IL-1 Inhibition (whole blood cells)
# MAPK14 [25] = target: MAPK14 (UniProt Q16539); experiment: p38-mediated EGFR Peptide Phosphorylation Inhibition
# MAPK14 [26] = target: MAPK14 (UniProt Q16539); experiment: p38 Inhibition (Phosphorylation of EGF Receptor Peptide)
# PIK3CA (human) [27] = target: PIK3CA (human) (UniProt P42336); experiment: Enzyme Assay
# PIK3CB (Human) = PIK3CB (Human) (UniProt P42338); experiment: Enzyme Assay
# PIK3CD (Human) [28] = target: PIK3CD (Human) (UniProt O00329); experiment: Enzyme Assay
# PIK3CD (Human), sequence (O00329 whole entry, looked up): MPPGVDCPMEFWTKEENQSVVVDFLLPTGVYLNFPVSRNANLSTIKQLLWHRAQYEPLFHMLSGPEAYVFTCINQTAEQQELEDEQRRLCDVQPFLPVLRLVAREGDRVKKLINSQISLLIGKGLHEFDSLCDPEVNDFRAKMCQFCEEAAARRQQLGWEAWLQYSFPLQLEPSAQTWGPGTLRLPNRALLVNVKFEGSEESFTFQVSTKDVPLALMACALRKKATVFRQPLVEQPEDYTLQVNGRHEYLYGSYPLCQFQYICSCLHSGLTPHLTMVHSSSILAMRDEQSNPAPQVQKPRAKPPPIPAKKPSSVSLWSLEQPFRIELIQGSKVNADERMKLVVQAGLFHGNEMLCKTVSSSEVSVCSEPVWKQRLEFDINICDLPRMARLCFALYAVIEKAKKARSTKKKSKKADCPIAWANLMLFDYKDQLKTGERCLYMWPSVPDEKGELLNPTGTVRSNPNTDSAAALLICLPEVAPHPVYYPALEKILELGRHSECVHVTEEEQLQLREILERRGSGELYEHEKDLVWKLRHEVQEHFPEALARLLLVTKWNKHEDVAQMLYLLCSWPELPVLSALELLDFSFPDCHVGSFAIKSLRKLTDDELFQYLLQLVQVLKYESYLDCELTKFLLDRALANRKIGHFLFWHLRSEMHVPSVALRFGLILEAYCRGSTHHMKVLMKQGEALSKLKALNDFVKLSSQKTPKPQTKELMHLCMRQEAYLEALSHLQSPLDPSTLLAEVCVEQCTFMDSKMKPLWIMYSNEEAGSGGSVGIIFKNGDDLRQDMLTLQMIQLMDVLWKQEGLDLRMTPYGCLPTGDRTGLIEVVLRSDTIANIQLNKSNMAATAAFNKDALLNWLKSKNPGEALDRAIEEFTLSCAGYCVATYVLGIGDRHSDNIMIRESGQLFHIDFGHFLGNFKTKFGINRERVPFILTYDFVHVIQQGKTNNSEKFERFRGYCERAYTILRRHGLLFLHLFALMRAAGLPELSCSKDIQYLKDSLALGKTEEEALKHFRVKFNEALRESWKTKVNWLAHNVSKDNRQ
# PIK3CG (human) = PIK3CG (human) (UniProt P48736); experiment: Enzyme Assay
# PIK3CD (Human) [29] = target: PIK3CD (Human) (UniProt O00329); experiment: Cell-Based Assay; settings: raji
# [30] = target: PIK3CA (human), P42336 [H1047R]; experiment: Assessment of PIK3CA(H1047R) Dependent Antiproliferative Activity in KPL-4 Cells
# PIK3CA (human), P42336 [H1047R], sequence (P42336 whole entry H1047R, looked up): as the sequence (P42336 whole entry, looked up) above, with H1047R counted along it
# EGFR (human) [31] = target: EGFR (human) (UniProt P00533); remark: listed apart in the source
# EGFR [32] = target: EGFR (UniProt P00533); remark: listed apart in the source
# EGFR (human) [33] = target: EGFR (human) (UniProt P00533); settings: a431
# CDK2 (human) [34] = target: CDK2 (human) (UniProt P24941); experiment: Enzyme Assay
# CDK2 (human) [35] = target: CDK2 (human) (UniProt P24941); experiment: Enzyme Assay; remark: listed apart in the source
# EGFR (human), sequence (P00533 whole entry, looked up): as the sequence (P00533 whole entry, looked up) above
smiles,measurement,setting,value
C=CC(=O)Nc1cccc(N2C(=O)N(Cc3ccccc3)Cc3cnc(Nc4ccc(N5CCN(C)CC5)cc4OC)nc32)c1,IC50,[1],0.7 nM
Cc1c(NC(=O)OC[C@@H]2COCCN2)cn2ncnc(Nc3ccc4c(cnn4Cc4cccc(F)c4)c3)c12,IC50,EGFR (human) [2],22 nM
same,IC50,EGFR (human) [3],900 nM
same,IC50,EGFR (human) [4],340 nM
same,IC50,EGFR (human) [5],750 nM
same,IC50,EGFR (human) [6],20 nM
O=C(Nc1nc(-c2ccncc2)cs1)C1COc2ccccc2O1 (centres undefined),IC50,ROCK2 (human) [7],40 nM
same,IC50,ROCK2 (human) [8],< 3 nM
O=c1ccc2cnc(Nc3ccc(N4CCCCC4)cc3)nc2n1C1CCCO1 (centres undefined),IC50,CDK2 [9],285 nM
same,IC50,CDK2 [10],1900 nM
O=C1NCN2N=C(Sc3ccccc3Br)C=CC2=C1c1c(Cl)cccc1Cl,IC50,MAPK14 (human) [11],240 nM
same,IC50,MAPK14 (human) [12],160 nM
C=CC(=O)NCCN1C(=O)N(Cc2ccccc2)Cc2cnc(Nc3ccc(N4CCN(C)CC4)cc3OC)nc21,IC50,[13],> 10000 nM
COC(=O)c1sc(C(C)(C)C)cc1NC(=O)Nc1ccc(C(N)=O)cc1,inhibition,MAPK14 [14],23%
COc1cc2ncc(C#N)c(Nc3cc(OC)c(OC)c(OC)c3)c2cc1OC,IC50,EGFR [15],1500 nM
C[C@H]1COCCN1c1cc(C2(S(C)(=O)=O)CC2)nc(-c2ccc(NC(=O)Nc3cnn(C)c3)cc2)n1,IC50,PIK3CG;PIK3CA (human),1040 nM
CC(C)(Cc1ccccc1C1CCN(S(C)(=O)=O)CC1)Nc1nc(N2CCOCC2)nc(-n2c(C(F)F)nc3ccccc32)n1,IC50,PIK3CA (human) [16],200 to 500 nM
CN1CCC(O)(c2nc(-c3ccc(F)cc3)c(-c3ccncc3)s2)CC1,inhibition,MAPK14 (OF1 mice),0%
CN(C)C/C=C/C(=O)Nc1cccc(C(=O)Nc2ccc(Nc3nccc(-c4c(-c5ccccc5)nn5ccccc45)n3)cc2)c1,IC50,MAPK14 (human) [17],63 nM
same,IC50,[18],21 nM
same,IC50,[19],24.9 nM
same,Kd,[20],2.6 nM
same,Kd,[21],7 nM
COc1cc2ncnc(Nc3ccc(NC(=O)NC4CCCCC4)cc3)c2cc1OC,IC50,EGFR (human) [22],9810 nM
CO[C@H]1[C@@H](N(C)C2C=NC=CN2)C[C@@H]2O[C@@]1(C)n1c3ccccc3c3c4c(c5c6ccccc6n2c5c31)C(=O)NC4 (some centres undefined),IC50,EGFR [23],8180 nM
O=c1ncn2nc(Sc3ccccc3)ccc2c1-c1c(Cl)cccc1Cl,IC50,MAPK14 (human) [24],3000 nM
same,IC50,MAPK14 [25],1300 nM
O=c1ncn2nc(Sc3ccccc3)ccc2c1-c1ccccc1,IC50,MAPK14 [26],> 20000 nM
C[C@H](NC(=O)c1c(N)nn2cccnc12)c1cc2cccc(Cl)c2c(=O)n1CCNS(=O)(=O)C(F)(F)F,IC50,PIK3CA (human) [27],1000 to 10000 nM
same,IC50,PIK3CB (Human),1000 to 10000 nM
same,IC50,PIK3CD (Human) [28],1000 to 10000 nM
same,IC50,PIK3CG (human),500 to 1000 nM
same,IC50,PIK3CD (Human) [29],10 to 100 nM
Oc1cccc(-c2nc(N3CCOCC3)nc3c2CCN3c2cccnc2)c1,IC50,[30],450 nM
N#CC(C#N)=C(N)/C(C#N)=C/c1ccc2ccccc2n1,IC50,EGFR (human) [31],1700 nM
CC[C@@H]1CC(=O)c2c(cc(O)c3c2C(=O)c2cccc(OC)c2C3=O)C1,IC50,EGFR [32],2110 nM
COc1ccc(/C=C/C(=O)Nc2cccc(Oc3cc(Nc4ccc(OCc5cccc(F)c5)c(Cl)c4)ncn3)c2)cc1OC,IC50,EGFR (human) [33],> 20000 nM
COc1cc(F)ccc1-c1cc(Nc2cc(CS(C)(=O)=NC#N)ccn2)ncc1F (centres undefined),IC50,CDK2 (human) [34],72 nM
same,IC50,CDK2 (human) [35],1420 nM
